Tested on: γ-GT
Assay: Histoenzymography of γ-GT activity in ex-vivo mouse kidneys
Assay type: biochemical
Conditions: ex-vivo kidneys of non-diseased BALB/c mice
Method: FIG. 2B. Selective inhibition of the enzymatic activities of APA and yGT by the γ-secretase analogues determined by histoenzymography in the kidneys of non diseased BALB/c mice.
Evaluation by histoenzymography of APA and γ-GT enzymatic activities on frozen tissue was performed as described in Juillerat-Jeanneret, L. et al., Lab. Invest. 2000, 80, 973-980. Briefly, OCT-embedded frozen kidneys were cut in 7 μm sections in a cryostat, fixed for 5 min in cold (−20° C.) acetone, air dried at RT and rehydrated for 5 min in 0.9% NaCl. Naphthylamide substrates were obtained from commercial sources (α-Glu-4-methoxy-β-naphtylamide (APA) from Bachem; and γ-Glu-4-methoxy-β-naphtylamide (γ-GT) from Serva). Substrates (1 mg) were dissolved in 1 ml DMF and 2 mg Fast Blue B (Sigma-Aldrich) was dissolved in 2 ml 0.2M cacodylate buffer pH 7.4 containing 700 mg/l CaCl2; then both solutions were slowly mixed immediately before use and the pH adjusted to 6.5-7.0. […] The slides were washed in distilled water, counter-stained with hematoxylin (Mayer) for 1 min, rinsed under tap water, then with Scott solution for 1 min, rinsed under tap water, mounted in Aquamount (Immu-mount, Thermo Shandon Pittsburgh, Pa., USA) and analyzed with a Nikon Eclipse E800 microscope and digital DXM1200 camera using ACT-1 software. […]

Structure (SMILES): CC(=O)N[C@@H](CCC(=O)NCCNC(=O)OCCN1C(=O)[C@@H](NC(=O)[C@@](C)(O)C(=O)NCC(F)(F)C(F)(F)F)[C@@H](C)Oc2ccc(F)cc21)C(=O)O [Compound 13a, (S)-2-acetamido-5-(2-((2-((2R,3S)-7-fluoro-3-((S)-2-hydroxy-2-methyl-3-oxo-3-(2,2,3,3,3-pentafluoropropylamino)propanamido)-2-methyl-4-oxo-3,4-dihydrobenzo[b][1,4]oxazepin-5(2H)-yl)ethoxy)carbonylamino)ethylamino)-5-oxopentanoic acid]
- inhibition of γ-GT-like activity (hydrolysis of γ-Glu-naphthylamide): able to inhibit γ-GT-like activity
